Changes are numbered by the printed parent chain.
What was measured:
[1] = target: T1, human ALDH2*2 recombinant mutant enzyme (E487K) (Homo sapiens, UniProt P05091, E504K); test: ALDH2 enzymatic assay (NADH at 340 nm), recombinant mutant enzyme; assay type: biochemical; design: key: −: no activation or inhibition; +: activation less than control 1; ++: activation similar to control 1, within 10%; +++: activation more than control 1 and less than control (compound 161); ++++: activation similar to compound 161, within 10%; details: activation relative to benchmarks control 1 and compound 161
T1 construct: His-tag (pTrcHis vector) (N); made in house; host or cells: E. coli BL21
T1 sequence (P05091 18-517 E504K): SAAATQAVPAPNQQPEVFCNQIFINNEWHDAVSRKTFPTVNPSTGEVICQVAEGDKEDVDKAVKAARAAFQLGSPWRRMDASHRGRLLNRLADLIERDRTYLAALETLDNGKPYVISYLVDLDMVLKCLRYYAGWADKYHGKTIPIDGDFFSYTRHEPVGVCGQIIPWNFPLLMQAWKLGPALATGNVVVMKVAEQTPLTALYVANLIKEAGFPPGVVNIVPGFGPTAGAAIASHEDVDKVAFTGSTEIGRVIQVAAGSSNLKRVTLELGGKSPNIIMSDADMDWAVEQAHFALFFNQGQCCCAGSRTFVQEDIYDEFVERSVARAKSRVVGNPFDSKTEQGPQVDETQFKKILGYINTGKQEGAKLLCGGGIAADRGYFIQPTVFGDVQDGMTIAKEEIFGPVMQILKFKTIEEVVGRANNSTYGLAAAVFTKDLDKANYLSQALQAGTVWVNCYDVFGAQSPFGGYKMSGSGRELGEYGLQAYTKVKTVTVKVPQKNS
Description: (§1) ALDH2 catalyzes the oxidative reaction of substrate acetaldehyde to acetic acid using NAD^+ as a cofactor. Enzymatic activity, or catalytic rate, of aldehyde dehydrogenase (ALDH2) can be measured spectrophotometrically at UV wavelength λ340 nm by the accumulation of reduced product NADH derived from NAD^+. […] This method is well-established in the literature [e.g. D. K. Rex, W. F. Bosron, J. E. Smialek, T. K. Li, Alcohol Clin Exp Res 9, 147 (1985)].
(§2) Full-length wild type human ALDH2 cDNA was purchased from ATCC (No. MGC-1806. GenBank ID: BC002967). The 18-amino acid mitochondria transport signal sequence was removed by PCR and cloned into the NheI/HindIII sites of a His-tag vector, pTrcHis, using standard molecular cloning techniques. The human ALDH2* cDNA construct containing the Asian E487K mutation was obtained by site-directed mutagenesis to create the E487K substitution of the wild type ALDH2. Both human clones were designed to express a recombinant protein with the His-tag at the N-terminus of the protein. For the co-expression experiments of human ALDH2 wild type and ALDH2*2 heterotetramers, a wild type ALDH2 gene and a ALDH2 E487K gene were inserted separately into the two multiple cloning sites of pETDuet-1 vector. (Novagen, Calif., USA). All the vectors were transformed into BL21 E. coli host cells and subjected to 0.5 mM IPTG induction for protein expression at 30° C. Purifications of the recombinant proteins by affinity nickel columns (HisTrap, GE Healthy Science, USA) were carried out using standard protocols according to manufacturer's instructions (Novagen, USA).
(§3) Control 1 and compound 161 are used as benchmarks and the symbols have the following representation: […]

[2] = target: T2, human ALDH2 wild type (Homo sapiens, UniProt P05091); test: ALDH2 enzymatic assay (NADH at 340 nm), recombinant wild type enzyme; assay type: biochemical; design: key: −: no activation or inhibition; +: activation less than control 1; ++: activation similar to control 1, within 10%; +++: activation more than control 1 and less than control (compound 161); ++++: activation similar to compound 161, within 10%; details: activation relative to benchmarks control 1 and compound 161
T2 construct: His-tag (pTrcHis vector) (N); made in house; host or cells: E. coli BL21
T2 sequence (P05091 18-517): T1 sequence (P05091 18-517 E504K) with K487E
Description: as §1, §2, §3

Row | SMILES | ALDH2 (mutant) [1] | ALDH2 (wild-type) [2]
1 | COc1ccc(CNC(=O)c2c(Cl)cccc2Cl)cc1Cl [Compound 100] | + | +
2 | COc1ccc(CNC(=O)c2c(Cl)cccc2Cl)cc1O [Compound 101] | + | +
3 | COc1ccc(CNC(=O)c2c(Cl)cccc2Cl)cc1F [Compound 102] | ++ | ++
4 | COc1cccc(CNC(=O)c2c(Cl)cccc2Cl)c1 [Compound 103] | + | +
5 | COc1ccc(CNC(=O)c2c(Cl)cccc2Br)cc1Cl [Compound 104] | + | +
6 | COc1ccc(CNC(=O)c2c(Cl)cccc2Br)cc1O [Compound 105] | + | −
7 | COc1ccc(CNC(=O)c2c(Cl)cccc2Br)cc1F [Compound 106] | ++ | +
8 | COc1cccc(CNC(=O)c2c(Cl)cccc2Br)c1 [Compound 107] | + | +
9 | COc1ccc(CNC(=O)c2c(Cl)cccc2Br)cc1 [Compound 108] | + | ++
10 | COc1ccc(CNC(=O)c2c(Cl)cccc2NCCO)cc1F [Compound 109] | ++ | +
11 | COc1ccc(CNC(=O)c2c(Cl)cccc2Oc2ccccc2)cc1F [Compound 110] | ++ | +
12 | CN(C)c1ccc(CNC(=O)c2c(Cl)cccc2Cl)cc1 [Compound 111] | − | −
13 | CS(=O)(=O)c1ccc(CNC(=O)c2c(Cl)cccc2Cl)cc1 [Compound 112] | + | +
14 | COc1ccc(CNC(=O)c2c(C)cccc2Br)cc1 [Compound 113] | + | +
15 | COc1ccc(CNC(=O)c2c(C)cccc2C)cc1 [Compound 114] | + | +
16 | COc1ccc(CNC(=O)c2cc(Br)ccc2C)cc1 [Compound 115] | + | +
17 | COc1ccc(CNC(=O)c2ccc(Br)cc2C)cc1 [Compound 116] | + | +
18 | COc1ccc(CNC(=O)c2c(C)cccc2NCC(C)C)cc1F [Compound 117] | ++ | +
19 | CS(=O)(=O)c1ccc(CNc2cccc(Cl)c2C(=O)NCc2ccc3c(c2)OCO3)cc1 [Compound 118] | + | +
20 | COc1ccc(CNC(=O)c2c(C)cccc2C)cc1F [Compound 119] | + | −
21 | COc1ccc(CNC(=O)c2c(NCCO)cccc2NCCO)cc1F [Compound 120] | + | −
22 | COc1ccc(CNC(=O)c2ccccc2Cl)cc1F [Compound 121] | + | +
23 | COc1ccc(CNC(=O)c2c(Cl)cccc2OCCC(C)C)cc1F [Compound 122] | ++ | +
24 | COc1ccc(CNC(=O)c2cc(Br)ccc2C)cc1F [Compound 123] | + | +
25 | COc1ccc(CNC(=O)c2ccc(Br)cc2C)cc1F [Compound 124] | + | +

Row | SMILES | ALDH2 (mutant) [1] | ALDH2 (wild-type) [2]
26 | COc1ccc(CNC(=O)c2c(C)cccc2Br)cc1F [Compound 125] | + | +
27 | O=C(O)c1ccc(CNC(=O)c2c(Cl)cccc2Br)cc1 [Compound 127] | + | +
28 | O=C(NCc1ccc([N+](=O)[O-])cc1)c1c(Cl)cccc1Br [Compound 128] | + | +
29 | COc1ccc(CNC(=O)c2c(Cl)cccc2NCc2cccc(C)c2)cc1F [Compound 129] | − | −
30 | COc1ccc(CNC(=O)c2c(Cl)cccc2NCc2ccc(Cl)cc2)cc1F [Compound 130] | − | −
31 | COc1ccc(CNC(=O)c2c(Cl)cccc2Oc2cccc(C)c2)cc1F [Compound 131] | + | +
32 | COc1ccc(CNC(=O)c2c(Cl)cccc2Oc2ccc(C)cc2)cc1F [Compound 132] | + | +
33 | O=C(NCc1ccc2c(c1)OCO2)c1c(Cl)cccc1NC1CCCNC1 (stereo not shown) [Compound 133] | + | +
34 | COc1ccc(CNC(=O)c2c(Cl)cccc2NCC2CC2)cc1F [Compound 134] | +++ | +++
35 | COc1ccc(CNC(=O)c2c(Cl)cccc2Oc2cccc(Cl)c2)cc1F [Compound 136] | ++ | ++
36 | COc1ccc(CNC(=O)c2c(Cl)cccc2Oc2ccc(Cl)cc2)cc1F [Compound 137] | + | ++
37 | COc1ccc(CNC(=O)c2c(Cl)cccc2OC)cc1F [Compound 138] | +++ | ++
38 | CCOc1cccc(Cl)c1C(=O)NCc1ccc(OC)c(F)c1 [Compound 139] | +++ | ++
39 | COc1ccc(CNC(=O)c2c(Cl)cccc2OC(C)C)cc1F [Compound 140] | +++ | +++
40 | C=CCOc1cccc(Cl)c1C(=O)NCc1ccc(OC)c(F)c1 [Compound 141] | +++ | ++
41 | CCC(CC)Oc1cccc(Cl)c1C(=O)NCc1ccc(OC)c(F)c1 [Compound 142] | +++ | ++
42 | COCCOc1cccc(Cl)c1C(=O)NCc1ccc(OC)c(F)c1 [Compound 143] | ++ | ++
43 | COc1ccc(CNC(=O)c2c(Cl)cccc2OCC2CCC2)cc1F [Compound 144] | +++ | +++
44 | COc1ccc(CNC(=O)c2c(Cl)cccc2OCC2CCCC2)cc1F [Compound 145] | +++ | ++
45 | COc1ccc(CNC(=O)c2c(Cl)cccc2OC2CCCC2)cc1F [Compound 146] | +++ | ++
46 | CCCOc1cccc(Cl)c1C(=O)NCc1ccc(OC)c(F)c1 [Compound 147] | +++ | +++
47 | COc1ccc(CNC(=O)c2c(Cl)cccc2NC2CCCC2)cc1F [Compound 148] | + | +
48 | COc1ccc(CNC(=O)c2c(Cl)cccc2OCC(C)C)cc1F [Compound 149] | ++++ | ++++
49 | COc1ccc(CNC(=O)c2c(Cl)cccc2OC(C)C2CC2)cc1F (stereo not shown) [Compound 150] | ++ | +++
50 | COc1ccc(CNC(=O)c2c(Cl)cccc2OCC2(C)CC2)cc1F [Compound 151] | ++++ | ++++

Reference: patent US9670162B2, “Mitochondrial aldehyde dehyrogenase-2 modulators and methods of use thereof” (The Board of Trustees of the Leland Stanford Junior …, priority 2013, dated 2017)
